Our source for the melting point values is a melting point compilation (Tetko et al.; mined from patent text by program, amines drawn as free bases though some values may be those of a salt).

Regarding `CC1(C)C(=O)Nc2cc3oc(Cc4ccncc4)nc3cc21`, the melting point (commonly the temperature, or range, at which the solid turns liquid) lay in the range of 208 to 211 °C.

`COc1ccc(C(=O)Nc2ccccc2)cc1NC(=S)Nc1ccc(S(N)(=O)=O)cc1` returned a melting point of 193 to 195 °C. With `S=C1CN=C(c2ccccn2)c2cc(I)ccc2N1` the figure was 242 °C.

For the compound `O=CN1CCc2ccccc2CC1`, the melting point fell in the range of 65 to 66 °C.

Compound `CCCCCC(=O)NC[C@@H]1CN2C(=O)C[C@H]2O1` (racemic) came in with a melting point of 56 to 57 °C. In the case of `Cc1ccc(C[C@@H]2CN(C(=O)/C=C/c3ccc(C(F)(F)F)cc3)CCN2C(=O)c2cc(C(F)(F)F)cc(C(F)(F)F)c2)cc1C`, the melting point was in the range of 74 to 76 °C. With `CC(C)(C)NC(=O)[C@@H]1C[C@@H]2CCCC[C@@H]2CN1C[C@@H](O)[C@@H](N)Cc1ccccc1` the figure was 175 to 176 °C. As to `Cc1ccc2oc(N(C=O)[C@@H](Cc3ccccn3)c3ncc(-c4ccc(N5CCOCC5)cc4)n3C)cc2c1`, the melting point lay in the range of 125 to 127 °C.

The compound `Cc1ccccc1NC(=O)c1ccc(C(=O)N2Cc3cccn3Cc3ccccc32)cc1` gave a melting point of 228 to 231 °C. With `CS(=O)(=O)CCC(C#N)CC#N` (stereo not given) the figure was 123 to 125 °C; with `Cc1nn(C)c(C)c1-c1cncc(OC2SCC(O)C(O)C2O)c1` (stereo not given), 174 °C. For `CC(C)(C)C(NC(=O)c1ccc(Cl)cc1)NC(=NC#N)Nc1cccnc1` (stereo not given) the value was 194 to 195 °C; for `CCc1nc2c(cnn2CC)c(NC2CCOCC2)c1CNC(=O)c1cccc(C(=O)NCc2ccc(C)c(-c3cccc(CN4CC(C)NC(C)C4)c3)c2)c1` (stereo not given), 109 to 112 °C; for `OCC1OC(n2cnc3c(NCCc4csc5ccccc45)ncnc32)C(O)C1O` (stereo not given), 173 to 174 °C. With `COc1ccc(C2=NN(C3CCCC3)C(=O)[C@H]3CC=CC[C@@H]23)cc1OC1CCCC1` (relative stereo) the figure was 144 to 145 °C. On to `CC(=O)c1ccc(CNS(=O)(=O)c2ccc(C)cc2)cc1`, for which the melting point lay within 125 to 128 °C.

Take `NCC(=O)NCCCCNc1cccc2c1C(=O)c1ccccc1C2=O`: the melting point amounted to 206 °C. On to `O=C(NCC1(c2ccccc2)CCCCC1)Nc1cccc(C(F)(F)F)c1`, for which the melting point fell in the range of 147 to 151 °C. `C=CCOC(=O)c1[nH]c2cc(Cl)cc(Cl)c2c1C=C1NC(=O)N(c2ccccc2)C1=O` registered a melting point of over 250 °C. With `O=Cc1ccc2c(ccc3cc4ccccc4cc32)c1` the figure was 144 to 145 °C; with `COc1cc(OC(=O)C(C)C)c2c(=O)c(OC)c(-c3ccc(OC(=O)C(C)(C)C)c(OC)c3)oc2c1`, 151 to 152 °C. Regarding `CC1(C)OCC(N2CCC(Cc3ccccc3)CC2)O1` (stereo not given), the melting point was in the range of 92 to 94 °C. With `Cn1c(C(F)(F)F)nn(-c2cc(F)c(C#N)cc2F)c1=O` the figure was 74 °C; with `O=C(O)c1cccc([N+](=O)[O-])c1SCCO`, 91 to 93 °C; with `COc1ccc2oc(Cc3cccnc3)c(CC#N)c2c1`, 123 °C.

In turn, `COC(=O)CCCC1C(=S)Nc2ccccc21` (stereo not given) yielded a melting point of 132 to 134 °C.

As to `CCCN(CO)c1nc(NCc2ccccc2)c2nc(Cl)n(C(C)C)c2n1`, the melting point fell in the range of 220 to 223 °C.

`Nc1cc(Cl)ncc1F` gave a melting point of 110 to 111 °C. As for `COc1ccc(C(=O)NCc2cccc3c2CN(C2CCC(=O)NC2=O)C3=O)cc1` (stereo not given), the melting point fell in the range of 289 to 291 °C. On to `O=c1c2c[nH]c3ccccc3c-2nn1-c1nccs1`, for which the melting point is over 350 °C. Consider `CN1CCC(c2c[nH]c3cc(F)c(OS(=O)(=O)c4c(F)cccc4F)cc23)CC1`, for which the melting point amounted to 202 °C.

`COCc1c(C(=O)OC(C)C)ncc2[nH]c3cccc(-c4cccs4)c3c12` registered a melting point of 160 to 162 °C. Regarding `CCCCn1c(=O)n2cnnc2c2[nH]c(-c3cc(S(=O)(=O)N4CCN(C(C)(C)CO)CC4)ccc3OCCC)nc21`, the melting point was 237 °C.

Consider `C[C@H](Cn1cnc2c(=O)[nH]c(N)nc21)OCP(=O)(O)O`, for which the melting point is 270 to 272 °C. With `CCCCc1nn(-c2cc(NC(=O)c3ccccc3)ccc2C(F)(F)F)c(=O)n1Cc1ccc(-c2ccccc2S(=O)(=O)NC(=O)OC(C)(C)C)cc1F` the figure was 117 to 120 °C; with `CC(=O)Nc1ncc(C23CCCN(CC2)C3)o1` (stereo not given), 142 to 143 °C. With `CCOc1ccccc1N(C[C@H]1CC[C@H](CN(C(=O)Nc2ccc(N(C)C)cc2)c2ccccc2OCC)CC1)C(=O)Nc1ccc(N(C)C)cc1` the figure was 153 to 155 °C. With `Cc1nc2c3c(ccn2c1C)C(=O)[C@@](C)(O)[C@@H](c1ccccc1)N3` the figure was 240 °C; with `CC1(C)CN(c2c(C#N)cnn2-c2ccc(Cl)c(Cl)c2Cl)C1=O`, 147 to 149 °C; with `O=C(O)c1ccc2n1Cc1ccccc1N(C(=O)COc1ccc(Cl)cc1)C2`, 168 °C. `CN1CCCCC1CCc1ccccc1NC(=O)c1ccc(C(F)(F)F)cc1` (stereo not given): the melting point came to 150 °C. `CCn1nc(-c2cccc(Cl)c2)c(C(C)=O)c(Nc2cccc3cnccc23)c1=O` returned a melting point of 189 to 191 °C. For `CCOCCC(=O)C1CCC2C3CCC4CC(O)CCC4(C)C3C(=O)CC12C` (stereo not given) the value was 126 to 130 °C; for `CNC(=O)c1cccc(NC(=O)CCc2ccccc2)c1`, 142 to 143 °C. `CCCCCCCCCCCCCCCCCC(=O)c1ccc(O)c(C(=O)O)c1` yielded a melting point of 128 to 132 °C. With `Cc1ccc(Br)c(C)c1C(O)=S`, the melting point is 98 to 103 °C.

`COc1cc(NC(=S)Nc2ccccc2)ccc1NNC=O` showed a melting point of 183 to 184 °C. `O=c1c2c(c1=O)Nc1cc(Cl)c(Cl)cc1N2` showed a melting point of over 360 °C. For `C=CCOc1ccc(C(=O)C=Cc2ccc(OC)cc2OC)cc1` the value was 74.5 to 75 °C. For `CC(=O)OCC1CCn2c(c(C3=C(c4cccc(C(F)(F)F)c4)C(=O)OC3=O)c3ccccc32)C1` (stereo not given) the value was 176 to 177 °C; for `CCCOc1ccc(S(=O)(=O)N2CCN(CC)CC2)cc1-c1nc2cc(N)c(N)cc2c(=O)[nH]1`, 183 to 186 °C. With `C=C1C(O)C(CO)OC1n1cc(C)c(=O)[nH]c1=O` (stereo not given) the figure was 161 to 162 °C; with `CCOC(=O)c1c(-c2cc(C)c(O)c(C)c2)c(C)n2c1-c1cc(N)c(OC)cc1CC2`, 104 to 106 °C. With `CCC[C@H]1CC[C@H](CCCOc2ccc(C(=O)O[C@H](C)[C@@H](C)OC(=O)c3ccc(OCCC[C@H]4CC[C@H](CCC)CC4)cc3)cc2)CC1`, the melting point is 109 °C. In turn, `CCCn1c([N+](=O)[O-])cnc1-c1cnc(N)s1` displayed a melting point of 234 to 236 °C. For `O=CN1CCN(CCSc2nc3ccccc3[nH]2)CC1` the value was 146 to 148 °C. With `Cc1oc(-c2ccccc2)nc1CCSc1ccc(C=O)cc1` the figure was 74 to 76 °C. For `COCc1c(C(=O)OC(C)C)ncc2[nH]c3cccc(Cc4ccccc4Cl)c3c12`, the melting point was 187 to 189 °C. For `O=C(N(Cc1ccccc1)Cc1cccs1)C12CC3CC(CC(C3)C1)C2` the value was 130 to 132 °C. With `CS(=O)(=O)CCN1C(=O)CN=C(c2ccccc2)c2cc(Cl)ccc21` the figure was 135 to 156 °C.

In turn, `O=C1CCC2(CCC(=O)c3cc([N+](=O)[O-])ccc32)C(=O)N1` (stereo not given) gave a melting point of 273 to 275 °C.

As to `COc1c(Br)c(-c2ccc(C(C)(C)C)s2)cc2oc(=O)c(C)c(C)c12`, the melting point came out at 170 °C. Compound `N#CC1=C(c2ccccc2)Nc2n[nH]cc2C1c1cccc(F)c1F` (stereo not given) registered a melting point of 165 °C.

The compound `CCN(CC)CCN1C(=O)Nc2ccc([N+](=O)[O-])cc2C1c1ccccc1` (stereo not given) displayed a melting point of 161 to 163 °C. For `Cc1nc(CN2CCc3sc(Nc4ncc(F)cn4)nc3-c3c[nH]nc32)no1` the value was 245 °C; for `CC12CCC3c4ccc(O)cc4CCC3C1CCC2=CF` (stereo not given), 125 to 129 °C. With `CCOC(=O)C(C#N)C(=O)c1ccc[nH]1` (stereo not given) the figure was 138 to 139 °C.

`CC(C)=CCC(C)(C)C(=O)/C=C/[C@@H]1[C@H]2CC(=O)O[C@H]2C[C@H]1OC(=O)c1ccccc1` registered a melting point of 98 °C.

In the case of `CCc1nc2c(N)nc3cc(OCC(=O)c4ccsc4)ccc3c2s1`, the melting point lay in the range of 202 to 203 °C. With `CCC(=O)c1ccsc1N(C)C(C)=O` the figure was 78.5 to 79.5 °C; with `O=[N+]([O-])c1cccc(CNc2nnn[nH]2)c1`, 208 to 210 °C; with `Cc1cc(C(c2ccc(C(c3ccc(O)c(C)c3)c3ccc(O)c(C)c3)cc2)c2ccc(O)c(C)c2)ccc1O`, 195 °C. `COC(=O)C(=Cc1cccc([N+](=O)[O-])c1)C(=O)OC`: the melting point lay in the range of 78 to 80 °C. For `CC[C@H](Nc1nc(Nc2cccc(NS(C)(=O)=O)c2)nc2[nH]cnc12)c1ccccc1` the value was 138 to 141 °C.

For `Cc1c(C)c([N+](=O)[O-])c(C)c2c1OC(C)(C)C2c1ccc(F)cc1` (stereo not given), the melting point fell in the range of 94 to 95 °C. For `CCCCCCCCCCCCCCCCCC(=O)OC1CC(C)(C)N(OC(=O)CCCCCCCCCCCCCCCCC)C(C)(C)C1` the value was 62 to 65 °C; for `Nc1ccc(Cl)cc1C(=O)c1ccccc1O`, 51 to 52 °C; for `CCCCCCCCC(=O)OC(C)c1ccc(-c2ccc(OC)cc2)cc1` (single isomer, unassigned; (+)), 59 to 60 °C. For `OC(CCN1CC=C(c2ccccc2)CC1)c1ccc(Cl)cc1` (stereo not given) the value was 141 °C; for `COc1ccccc1C(=O)c1cc([N+](=O)[O-])ccc1SC`, 119 to 122 °C; for `CC(C)(N)c1ccc(-c2nc(Nc3cccc(C(F)(F)F)c3)ncc2C#N)cc1`, 192 °C. For `CCCCNC(=O)Nc1ccc(N2CCCC2)cc1C(=O)NCC1CCN(C(c2ccccc2)c2ccccc2)CC1` the value was 200 to 202 °C; for `O=C(CCl)N1CCSC1CCc1ccccc1O` (stereo not given), 98 °C; for `CCCn1nc2c(O)nc3ccccc3c2c1CC(C)(C)O`, 294 to 296 °C. `COC(=O)C(C)(N)Cc1c[nH]c2ccc(OC)cc12` (racemic): the melting point is 131 to 132 °C.
